From patent publication US8889723B2, “Aminoalkyloxazole and aminoalkylthiazolecarboxylic acid amides as regeneration-promoting substances for sensory organs and post-mitotic tissues” (EMC microcollections GmbH, priority 2010, dated 2014)
Entries after “also recorded” stand apart in the source; their conditions may differ.

Assays:
[1] = test system: sensory hair cells; experiment: Ototoxic damage of sensory hair cells in organ culture; assay type: cell-based, mouse; conditions: 1 mM, within 24 hours
Experimental: (§1) After administration of the ototoxic aminoglycoside antibiotic neomycin (1 mM), ⅔of all sensory hair cells suffered cell death within 24 hours. Only in the apical regions of the cochlea, some sensory hair cells survived, the number of which declined further during the course of the experiment as a result of the initial damage. After removal of the neomycin from the medium, the remaining supportive cells could be cultivated further.

[2] = test system: differentiated otic epithelium islands from stem cells isolated from the postnatal organ of Corti; experiment: In vitro cell culture assay: proportion of Sox2-positive cells (dedifferentiation); assay type: cell-based, mouse; conditions: screening assay, FIG. 3; p<0.05, n=10
Experimental: (§2) First, starting with stem cells with otic development potential isolated from the postnatal organ of Corti of the mouse, typical cellular cluster “spheres” were grown in a suspension culture. Under culture conditions optimized compared to known processes (Oshima et al., 2007; Senn et al., 2007) in a DMEM/F12 medium (Dulbecco's Modified Eagle Medium) supplemented with B27 and N2, about 1600 solid spheres per organ of Corti could be generated from the stem cell culture with added FGF (fibroblast growth factor) and IGF (insulin-like growth factor) (FIG. 1H).
(§3) To this end, the cultivated otospheres were differentiated in a second step under adherent culture conditions on an ornithine/fibronectin surface to give monolayer epithelium islands relatively similar to the original sensory epithelium.
For screening, firstly the proportion of Sox2-positive cells in the in vitro culture was determined. Sox2 is a stem cell marker, which is also expressed during ontogenesis of the organ of Corti. It is thought to have an important role in the pluripotency of embryonal stem cells and during induction of pluripotent stem cells from differentiated cells (Takahashi and Yamanaka, 2006). Accordingly, Sox2 is an important marker, in particular in the context of an induced dedifferentiation/reprogramming of cells.

[3] = test system: supportive cells of the organ of Corti; experiment: In vitro organ culture model: BrdU incorporation after neomycin damage; assay type: cell-based, mouse; conditions: 5 μM, 4 days, after neomycin (1 mM) damage, FIG. 6
Source text: To confirm the effects observed in the cell culture assay in the native organ, i.e., in situ in the complex cellular structure of the organ of Corti, use was made of a form of organ culture where the tissue to be cultivated, in the present case the entire inner ear of the mouse, was located in a rotating cylinder filled with culture medium (Hahn et al., 2008). Before the start of the experiment, the cochlea was opened basally and apically in the region of the scala tympani. In this manner, it was possible to minimize the effect of gravity and at the same time to achieve optimum gas and nutrient exchange between the tissue of the organ of Corti and the culture medium. Under these conditions, the explantate could be kept in culture for longer compared to a stationary culture.
as §1
BrdU was then added to the culture medium simultaneously with the compounds (5 μM), and after 4 days the proliferation was quantified by BrdU incorporation.

[4] = test system: organ of Corti; experiment: In vivo administration after acoustic trauma: regeneration of sensory hair cells (BrdU, myosin VI, DAPI, Sox2 labelling); conditions: adult guinea pig, impulse noise damage, 200 μM in Alzet pump intracochlear over 6 weeks, FIG. 7
Source text: Acute acoustic damage resulting in a loss of sensory hair cells of the organ of Corti, in particular in the region of the outer sensory hair cells, was caused by impulse noise. The compound N-cyclohexyl-2-[1-amino-2-(1H-indol-3-yl)ethyl]α-azole-4-carboxylic acid amide (3) was then continuously administered locally from a miniosmotic pump (Alzet®), subcutaneously implanted, via choleostomy directly into the scala tympani of the cochlea. The dosage of the substance in the pump was correspondingly higher at 200 μM, taking into account an expected dilution effect in the perilymph.
Administration was over a period of 6 weeks, with a subsequent waiting interval of 2 weeks. In parallel, BrdU was administered via the drinking water or the miniosmotic pump to label proliferating cells in the organ of Corti.
After removal of the organ of Corti, immunohistochemical triple labelling with BrdU (cell division), myosin VI (sensory hair cells) and DAPI (staining of the nuclei) FIGS. 7A to 7E and also with Sox2 (pluripotent supportive cells) was carried out.

[5] = test system: differentiated otic epithelium islands from stem cells isolated from the postnatal organ of Corti; experiment: In vitro cell culture assay: BrdU-positive cells (proliferation), screening and dose/activity analysis; assay type: cell-based, mouse
Experimental: as §2, §3
If the expression of stem cell markers induced by the compounds is in the end also associated with an increased proliferation of the cells in culture was checked by quantification of the BrdU-positive cells. During substance administration the culture was incubated for 5 h with the thymidine analog BrdU. During the S phase of the cell cycle, cell division results in incorporation of BrdU. If one of the substances stimulates cell division, this can be detected and visualized with an antibody directed against BrdU.
In a dose/activity analysis, the optimum concentration range in which this compound unfolds its maximum regeneration biological effect in the cell culture was determined.
To this end, incorporation of BrdU in the stem cell-based in vitro cell culture assay was determined at 4 concentrations between 0.3 μM and 10 μM in the culture medium. […] From a concentration of 3 μM, the saturation level of about 9% BrdU-positive cells is already reached (FIG. 5).

Compound | proportion of all sensory hair cells that suffered cell death [1] | proportion of Sox2-expressing cells compared with the differentiation control [2] | BrdU incorporation into supportive cells (proliferation) [3] | BrdU incorporation into supportive cells (proliferation) ([3]; listed as substance 33) | regeneration of sensory hair cells based on cell division (BrdU labelling) [4] | BrdU incorporation in dose/activity analysis ([5]; 0.3 μM in culture medium, FIG. 5) | BrdU incorporation in dose/activity analysis ([5]; 1 μM in culture medium, FIG. 5) | BrdU incorporation when concentration increased from 0.3 μM to 3 μM ([5]; adhesion culture, p<0.05, n=10, FIG. 5) | BrdU incorporation at concentrations higher than 3 μM ([5]; adhesion culture, up to 10 μM, FIG. 5) | BrdU-positive cells, saturation level in dose/activity analysis ([5]; from 3 μM in culture medium, FIG. 5) | proportion of BrdU-positive cells (induced proliferation) ([5]; screening assay, 5 h incubation with BrdU, FIG. 4) [%] | BrdU incorporation, result in words ([5]; screening assay, 5 h incubation with BrdU, p<0.05, n=10)
neomycin | ⅔ | – | – | – | – | – | – | – | – | – | – | –
N[C@@H](Cc1c[nH]c2ccccc12)c1nc(C(=O)NC2CCCCC2)co1 [Compound 3, N-cyclohexyl-2-[1-amino-2-(1H-indol-3-yl)ethyl]oxazole-4-carboxylic acid amide] | – | more than doubled; also recorded: significant positive results | BrdU incorporation could be demonstrated in the furthest laterally orientated Deiter's cells; also recorded: new cells in the sense of a regeneration by cell division of supportive cells have been formed; also recorded: BrdU was incorporated into laterally orientated Deiter's cells | BrdU was incorporated into individual inner phalangeal cells and inner border cells | BrdU-labelled supportive cells and sensory hair cells were preferably demonstrated in the regions of the organ of Corti damaged by acoustic trauma; also recorded: regeneration of sensory hair cells on the basis of cell divisions can be induced | no significant effect | the mean was already elevated | increased to a significantly higher level | could not be increased any further | about 9% | 4.8 | significant positive results
